How the values were obtained:
Type in all cases: in vivo
[1] = system: dog; assay: Anti-emetic activity in dogs, modified anti-apomorphine method; details: fumarate salts; for ED50: Canis lupus familiaris, sc, expressed as free base, read-out: ED50 (95% Confidence Limits), anti-apomorphine
Method: The anti-emetic properties of the fumarate salts were established in dogs using a modification of the anti-apomorphine methods of Chen and Ensor, J. Pharmac. Exp. Ther. 98, 245-250 (1950) and of Leonard et al., J. Pharmac. Exp. Ther. 154, 339-345 (1966) and the ED50 was calculated by the method of Goldstein (Biostatistics, An Introductory Text, pg. 156-161, The MacMillan Co., N. Y., 1964).

[2] = system: rat; assay: Cataleptic effects in rat, procedure based on Tedeschi et al.; details: for cataleptic effect (NSE = no significant cataleptic effect in doses up to indicated amount): rat, fumarate salts, expressed as free base
Excerpt: (§1) The procedure used for determining cataleptic effects of the fumarate salts was based on that of Tedeschi et al., Arch. Int. Pharmacodyn.

[3] = as above; details: in vivo; rat, IP; fumarate salts, expressed as free base; read-out: ED50, cataleptic effect
Excerpt: as §1

Structure (SMILES) | ED50 [1] [mg/kg] | cataleptic properties ([2]; general statement) | cataleptic effect (NSE = no significant cataleptic effect in doses up to indicated amount) ([2]; IP) | cataleptic effect (NSE = no significant cataleptic effect in doses up to indicated amount) ([2]; PO) | anti-apomorphine activity (words in the ED50 column) ([1]; s.c.) | ED50 [3] [mg/kg]
CN(C(=O)c1ccc(N)cc1)C1CCN(C2CCCCC2)C1 (racemic) [± racemate, 4-amino-N-(1-cyclohexyl-3-pyrrolidinyl)-N-methylbenzamide] | 0.25 | notable absence of cataleptic properties | NSE to 100 | NSE to 200 |  | 
CN(C(=O)c1ccc(N)cc1)C1CCN(C2CCCCC2)C1 (single isomer, unassigned; (+)) [(+)-isomer, (+)-4-amino-N-(1-cyclohexyl-3-pyrrolidinyl)-N-methylbenzamide] |  |  | NSE to 100 | NSE to 200 | no significant | 
CN(C(=O)c1ccc(N)cc1)C1CCN(C2CCCCC2)C1 (single isomer, unassigned; (-)) [(-)-isomer, (-)-4-amino-N-(1-cyclohexyl-3-pyrrolidinyl)-N-methylbenzamide] | 0.09 |  |  |  |  | > 100

From patent US4282243A, “Optical isomers of 4-amino-N-(1-cyclohexyl-3-pyrrolidinyl)-N-methylbenzamide” (A. H. Robins Company, Inc., priority 1980, dated 1981)
